# Source: patent publication US10918624B2, “Anti-cancer azole compounds” (Imam Abdulrahman Bin Faisal University, priority 2019, dated 2021)
# “Also recorded” adds a separate entry of the source.
# Assays:
# HCT-116 cells [1] = assay: Cancer cells viability by MTT assay; conditions: for cancer cell viability (% of control) / effect on cancer cells survivability (in words): 48 hrs; for cancer cell viability (% of control) / effect on cancer cells survivability (in words) / attenuating cancer cells proliferation (in words): HCT-116; for effect on cancer cells survivability (in words): 100, 500 and 750 ug/mL; for dose dependence of effect on cancer cell survivability: HCT-116, FIG. 11
# Protocol: HCT-116 cells were grown as previously described method by Khan et al. [“Fluorescent magnetic submicronic polymer (FMSP) nanoparticles induce cell death in human colorectal carcinoma cells” Artif Cells Nanomed Biotechnol. (2018 Jul. 25) 1-7, doi: 10.1080/21691401.2018.1491476]. In brief, HCT-116 cells were grown in the DMEM, 10% fetal bovine serum, L-glutamine, selenium chloride, penicillin, and streptomycin. The cells were culture in incubator (Heracell 150i, Thermo-scientific, USA) containing 5% CO2 at 37°. Finally, confluence cells were seeded into 96-well cell plates and once the cells become 80% confluence, the cancer cells were treated with different concentrations (100 μg/mL, 500 μg/mL and 750 μg/mL) of BG-(Tri)2, BG-(ATri)2, BG-(Atet)2, BG-(Imi)2, BG-(H3PO4)2, respectively. Thereafter, the treated cancer cells were microscopically monitored after 24 hrs and 48 hrs intervals. Three samples were examined from each experiment.
# The effects of BG-(Tri)2, BG-(ATri)2, BG-(Atet)2, BG-(Imi)2, BG-(H3PO4)2 on cancer cells were determined by MTT assay. The cancer cells were seeded with 6×10^4 cells/mL in 96-well culture plates containing DMEM, 10% Fetal bovine serum, penicillin, and streptomycin and were incubated in CO2 incubator till they become 80% confluence. Then, cancer cells were treated with BG-(Tri)2, BG-(ATri)2, BG-(Atet)2, BG-(Imi)2, BG-(H3PO4)2 at concentrations of 100 μg/mL, 500 μg/mL and 750 μg/mL, respectively. […] MTT (5.0 mg/mL) solution was added in each well and cells were again incubated for 4 hrs in the CO2 incubator and finally media was changed with the addition of DMSO. The color intensity of each sample was measured using an ELISA plate reader (Biotek Instruments, USA) at wavelength 570 nm.
# The following formula was used to calculate percentage of cell viability: % of Cell viability=Optical density (O.D) of BG-(Tri)2,BG-(ATri)2,BG-(Atet)2,BG-(Imi)2,BG-(H3PO4)2 cells/Optical density (O.D) of control cells×100 Statistical Analysis:
# The mean±standard deviation (SD) from control and BG-(Tri)2, BG-(ATri)2, BG-(Atet)2, BG-(Imi)2, BG-(H3PO4)2 treated groups were calculated. All statistical analyses were completed with GraphPad Prism 6 (GraphPad Software). The difference between control and BG-(Tri)2, BG-(ATri)2, BG-(Atet)2, BG-(Imi)2, BG-(H3PO4)2 groups by a one-way ANOVA test (P<0.05). P<0.05 was considered as statistically significant.
# HCT-116 cells [2] = assay: Cancer cell morphology (inverted microscope); type: cell-based, human; conditions: for cancer cell morphology change: 48 hours, HCT-116; for microscopic evaluation of treated cancer cells (overall): HCT-116, versus control
# Source text: Three samples were examined from each experiment.
# [3] = Thermogravimetric analyses (TGA); type: physicochemical; conditions: 25° C. to 700° C., 10° C. min, nitrogen
# Protocol: TGA were carried on Perkin-Elmer, simultaneous thermal analyzer (STA6000, PerkinElmer, Ohio, USA). TGA data of azole-BG samples were obtained at temperature in the range of 25° C. to 700° C. at the rate of 10° C. min under inert nitrogen flowing at a rate of 20 mL/min.
Structure (SMILES),cancer cell viability (% of control) (HCT-116 cells [1]; 100 ug/mL),cancer cell viability (% of control) (HCT-116 cells [1]; 500 ug/mL),cancer cell viability (% of control) (HCT-116 cells [1]; 750 ug/mL),effect on cancer cells survivability (in words) (HCT-116 cells [1]),attenuating cancer cells proliferation (in words) (HCT-116 cells [1]),dose dependence of effect on cancer cell survivability (HCT-116 cells [1]),cancer cell morphology change (HCT-116 cells [2]; 100 μg/mL),cancer cell morphology change (HCT-116 cells [2]; 500 μg/mL),"cancer cell morphology change (HCT-116 cells [2]; 500 μg/mL, listed as BG-(ATet)2)",cancer cell morphology change (HCT-116 cells [2]; 750 μg/mL),"cancer cell morphology change (HCT-116 cells [2]; 750 μg/mL, listed as BG-(ATet)2)",microscopic evaluation of treated cancer cells (overall) (HCT-116 cells [2]),temperature of weight loss / degradation by TGA [3],"cancer cell morphology change (HCT-116 cells [2]; 500 μg/mL, listed as BG-(H3PO4))","cancer cell morphology change (HCT-116 cells [2]; 750 μg/mL, listed as BG-(H3PO4))"
OC(CNc1nnn[nH]1)COCCCCOCC(O)CNc1nnn[nH]1 (stereo not drawn) [BG-(Atet)2],25%,22.50%,18.75%,most profound effects on the cancer cells; also recorded: profound effects on cancer cells survivability,highly effective in attenuating cancer cells proliferation,dose dependent effects on cancer cell survivability,strong nucleus condensation and nuclear augmentation,Further nucleus condensation and augmentation,nuclear condensation and augmentation,significant loss of cell population,strong nuclear condensation and augmentation and showed the beginning of cell membrane disruption,"not only affected the cancer cell membrane, but also induced nuclear condensation, augmentation and disintegration",,,
OC(CNc1ncn[nH]1)COCCCCOCC(O)CNc1ncn[nH]1 (stereo not drawn) [BG-(ATri)2],28.12%,25.62%,24.68%,most profound effects on the cancer cells; also recorded: profound effects on cancer cells survivability,highly effective in attenuating cancer cells proliferation,dose dependent effects on cancer cell survivability,significant levels of nucleus condensation and nuclear augmentation,nuclear condensation and augmentation,,Significant loss of cell population; also recorded: strong nuclear condensation and augmentation and showed the beginning of cell membrane disruption,,"not only affected the cancer cell membrane, but also induced nuclear condensation, augmentation and disintegration",,,
OC(COCCCCOCC(O)Cn1ccnc1)Cn1ccnc1 (stereo not drawn) [BG-(Imi)2],25%,21.87%,18.75%,most profound effects on the cancer cells; also recorded: profound effects on cancer cells survivability,highly effective in attenuating cancer cells proliferation,dose dependent effects on cancer cell survivability,strong nucleus condensation and nuclear augmentation,further nucleus condensation and augmentation; also recorded: nuclear condensation and augmentation,,significant loss of cell population; also recorded: strong nuclear condensation and augmentation and showed the beginning of cell membrane disruption,,"not only affected the cancer cell membrane, but also induced nuclear condensation, augmentation and disintegration",,,
OC(COCCCCOCC(O)Cn1cncn1)Cn1cncn1 (stereo not drawn) [BG-(Tri)2],75%,26.86%,21.87%,most profound effects on the cancer cells; also recorded: profound effects on cancer cells survivability,highly effective in attenuating cancer cells proliferation,dose dependent effects on cancer cell survivability,moderate levels of nucleus condensation and nuclear augmentation,Strong nuclear condensation and augmentation and the beginning of cell membrane disruption,,significant loss of cell population; also recorded: nuclear condensation and augmentation,,"not only affected the cancer cell membrane, but also induced nuclear condensation, augmentation and disintegration",,,
O=P(O)(O)OCC(O)COCCCCOCC(O)COP(=O)(O)O (stereo not drawn) [BG-(H3PO4)2],85.31%,55.93%,53.12%,profound effects on cancer cells survivability,,dose dependent effects on cancer cell survivability,disintegrations of cancer cells,strong nuclear condensation and augmentation,,strong nuclear condensation and augmentation,,"not only affected the cancer cell membrane, but also induced nuclear condensation, augmentation and disintegration",Above 200 °C,nuclear condensation and augmentation,strong nuclear condensation and augmentation and showed the beginning of cell membrane disruption
